One compound from patent publication US7304079B2, “Substituted indolealkanoic acids” (The Institute for Pharmaceutical Discovery, LLC, priority 1998, dated 2007) can be followed below.

The target in the experiment is T1, human aldehyde reductase (hALR1) (Homo sapiens, UniProt P14550).
T1 sequence (P14550 1-325): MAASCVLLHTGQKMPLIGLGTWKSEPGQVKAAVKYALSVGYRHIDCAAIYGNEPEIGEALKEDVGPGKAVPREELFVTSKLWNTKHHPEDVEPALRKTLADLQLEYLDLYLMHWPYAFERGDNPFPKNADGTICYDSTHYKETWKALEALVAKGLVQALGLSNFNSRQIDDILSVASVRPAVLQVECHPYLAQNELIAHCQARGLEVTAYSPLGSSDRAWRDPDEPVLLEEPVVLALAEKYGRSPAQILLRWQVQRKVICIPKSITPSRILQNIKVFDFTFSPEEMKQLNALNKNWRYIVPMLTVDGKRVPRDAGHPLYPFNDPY
Put plainly: human aldehyde reductase (hALR1) inhibition. Type of experiment: biochemical. On the procedure: In a second assay, a number of the same compounds were tested for their ability to inhibit aldehyde reductase (hALR1), a structurally related enzyme.

The IC50 is the point on the concentration scale where inhibition reaches its midpoint. Read a high IC50 as lower potency. Regarding `O=C(O)Cn1cc(Cc2nc3c(F)c(F)cc(F)c3s2)c2ccc(N3CCOCC3)cc21` [Example 18, 6-morpholino-3-(4,5,7-trifluorobenzothiazol-2-yl)methyl-indole-N-acetic acid], the IC50 is greater than 100 nM.
